Experimental data published in ChEMBL document CHEMBL2331126, “Alkyl esters of gallic acid as anticancer agents: a review” (Eur J Med Chem, 2013).
Converted amounts (≈) assume the structure as drawn.

How the values were obtained:
CCRF-CEM = test: Cytotoxicity against human CEM cells; assay type: cell-based
B16-F10 = test: Cytotoxicity against mouse B16F10 cells; assay type: functional, cell-based
L1210 = test: Cytotoxicity against mouse L1210 cells; assay type: functional, cell-based
MDA-MB-231 = test: Cytotoxicity against human MDA-MB-231 cells; assay type: functional, cell-based
[1] = Cytotoxicity against mouse WEHI231 cells; assay type: functional, cell-based
L929 = test: Cytotoxicity against mouse L929 cells; assay type: functional, cell-based
HL-60 = test: Cytotoxicity against human HL60 cells; assay type: functional, cell-based
[2] = molecular target: Disintegrin and metalloproteinase domain-containing protein 17 (Homo sapiens) (UniProt P78536); test: Inhibition of ADAM17 alpha-secretase activity in human […] cells using amyloid beta precursor protein as substrate at 40 ug/ml after 24 hrs by fluorimetric analysis; assay type: cell-based
Chain of Disintegrin and metalloproteinase domain-containing protein 17 (Homo sapiens) (P78536 whole entry, the tested form may be a part): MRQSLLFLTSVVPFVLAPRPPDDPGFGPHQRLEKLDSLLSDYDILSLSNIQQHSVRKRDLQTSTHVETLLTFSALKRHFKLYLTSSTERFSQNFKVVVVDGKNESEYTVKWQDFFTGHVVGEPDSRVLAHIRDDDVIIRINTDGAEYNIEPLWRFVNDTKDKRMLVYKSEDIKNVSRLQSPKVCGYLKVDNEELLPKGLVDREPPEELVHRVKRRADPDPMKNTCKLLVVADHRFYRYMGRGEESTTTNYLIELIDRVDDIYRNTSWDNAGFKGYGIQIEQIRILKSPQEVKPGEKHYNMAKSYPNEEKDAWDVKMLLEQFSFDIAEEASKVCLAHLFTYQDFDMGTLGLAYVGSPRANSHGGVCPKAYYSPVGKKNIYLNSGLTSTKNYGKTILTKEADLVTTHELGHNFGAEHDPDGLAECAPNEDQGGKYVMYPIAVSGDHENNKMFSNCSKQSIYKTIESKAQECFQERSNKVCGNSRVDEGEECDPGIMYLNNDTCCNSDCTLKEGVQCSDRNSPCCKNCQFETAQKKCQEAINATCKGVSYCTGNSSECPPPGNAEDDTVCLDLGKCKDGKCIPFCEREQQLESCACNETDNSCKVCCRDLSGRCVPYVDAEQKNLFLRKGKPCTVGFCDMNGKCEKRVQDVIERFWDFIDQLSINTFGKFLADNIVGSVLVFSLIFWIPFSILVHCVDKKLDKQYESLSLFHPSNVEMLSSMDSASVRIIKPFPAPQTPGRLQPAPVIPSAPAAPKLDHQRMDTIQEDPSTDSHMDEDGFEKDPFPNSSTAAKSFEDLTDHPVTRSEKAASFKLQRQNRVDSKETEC

P388-D1 (Mus musculus) = test: Cytotoxicity against mouse P388D1 cells
U-251 [3] = test: Antimigratory activity against human U251 cells at 30 ug/ml after 8 hrs by wound closure assay; assay type: functional
[4] = Cytotoxicity against rat endothelial cells; details: Endothelial cell
K562 [5] = test: Cytotoxicity against human imatinib-resistant K562 cells; assay type: functional, cell-based
[6] = Cytotoxicity against rat fibroblast cells; assay type: cell-based
[7] = Cytotoxicity against rat dRLh-84 cells; assay type: functional, cell-based
[8] = molecular target: Disintegrin and metalloproteinase domain-containing protein 17 (Homo sapiens) (UniProt P78536); test: Inhibition of ADAM17 alpha-secretase activity in human […] cells using amyloid beta precursor protein as substrate at 20 ug/ml after 24 hrs by fluorimetric analysis; assay type: cell-based
[9] = Antimigratory activity against human U87 cells at 40 ug/ml after 8 hrs by wound closure assay; assay type: functional, U-87MG ATCC
Calu-6 = test: Cytotoxicity against human Calu6 cells; assay type: functional, cell-based
[10] = Cytotoxicity against human HL60RG cells; assay type: functional, cell-based
A549 = test: Cytotoxicity against human A549 cells; assay type: functional, cell-based
[11] = molecular target: Disintegrin and metalloproteinase domain-containing protein 17 (Homo sapiens) (UniProt P78536); test: Inhibition of ADAM17 alpha-secretase activity in human […] cells using amyloid beta precursor protein as substrate at 30 ug/ml after 24 hrs by fluorimetric analysis; assay type: cell-based
HeLa = test: Cytotoxicity against human HeLa cells; assay type: functional, cell-based
U-251 [12] = test: Antimigratory activity against human U251 cells at 40 ug/ml after 8 hrs by wound closure assay; assay type: functional
[13] = Cytotoxicity against human PLC/PRF/5 cells; assay type: functional, cell-based
KB = test: Cytotoxicity against human KB cells; assay type: functional, cell-based
[14] = Antimigratory activity against human U87 cells at 30 ug/ml after 8 hrs by wound closure assay; assay type: functional, U-87MG ATCC
K562 [15] = test: Cytotoxicity against human K562 cells; assay type: functional, cell-based

SMILES	IC50 (CCRF-CEM)	IC50 (B16-F10)	IC50 (L1210)	IC50 [1]	IC50 (L929)	IC50 (HL-60)	IC50 (HeLa)	other results
CCCCCCCCCCOC(=O)c1cc(O)c(O)c(O)c1 [DECYL GALLATE]	9.8 µM	82 µM	12.2 µM					
CCCCCCCCCCCCOC(=O)c1cc(O)c(O)c(O)c1 [DODECYL GALLATE]	47.4 µM	48 µM	10.9 µM	1 µM	1 µM	33 µM		IC50 (MDA-MB-231): 1 µM
O=C(O)c1cc(O)c(O)c(O)c1 [GALLIC ACID]				40 µM	250 µM	300 µM	358 µM	inhibition [2]: 38.9%; IC50 (P388-D1 (Mus musculus)): 282 µM; Activity (U-251 [3]): 51%; IC50 [4]: > 20 µg/mL; IC50 (K562 [5]): 4.75 µM; IC50 [6]: > 20 µg/mL; IC50 [7]: 364 µM; inhibition [8]: 47.9%; Activity [9]: 30%; IC50 (Calu-6): 10 µM; IC50 [10]: 317 µM; IC50 (A549): 100 µM; inhibition [11]: 43.5%; Activity (U-251 [12]): 31%; IC50 [13]: 387 µM; IC50 (KB): 13.2 µg/mL (≈ 77.6 µM); Activity [14]: 29%; IC50 (K562 [15]): 33 µM
CCCCCCCCOC(=O)c1cc(O)c(O)c(O)c1 [OCTYL_GALLATE]	50 µM	45 µM	22 µM	1.5 µM	1 µM			
CCCOC(=O)c1cc(O)c(O)c(O)c1 [PROPYL GALLATE]				12 µM	40 µM		800 µM	
CCCCCCCCCCCCCCOC(=O)c1cc(O)c(O)c(O)c1 [TETRADECYL GALLATE]	> 50 µM	60 µM	8.5 µM					
